According to ChEMBL document CHEMBL1152845, “Synthesis, cytotoxicity and apoptosis of naphthalimide polyamine conjugates as antitumor agents” (Eur J Med Chem, 2009):
Each block holds one compound with its values, some of them ahead of it. The source made the active and inactive calls. The calls are words filed in the database; no cut-off is given here.

Assays:
B16 [1] = assay: Cytotoxicity against mouse B16 cells after 48 hrs by MTT assay; assay type: functional, cell-based; conditions: B16, 48 h
K562 = assay: Cytotoxicity against human K562 cells after 48 hrs by MTT assay; assay type: functional, cell-based; conditions: K562, 48 h
CHO = assay: Cytotoxicity against CHO cells after 48 hrs by MTT assay; assay type: cell-based; conditions: Cricetulus griseus
[2] = Cytotoxicity against mouse Mel-A cells after 48 hrs by MTT assay; assay type: cell-based
B16 [3] = assay: Cell cycle arrest in mouse B16 cells by accumulation at G0/G1 phase at 2.0 uM after 48 hrs by flow cytometry; assay type: functional
B16 [4] = assay: Cell cycle arrest in mouse B16 cells by accumulation at S phase at 1.0 uM after 48 hrs by flow cytometry; assay type: functional
B16 [5] = assay: Induction of apoptosis in mouse B16 cells assessed as sub-G1 DNA content at 0.5 uM after 48 hrs by flow cytometry; assay type: functional
B16 [6] = assay: Induction of apoptosis in mouse B16 cells assessed as increase in mitochondrial cytochrome-C release after 48 hrs by Western blot relative to control; assay type: functional, cell-based
B16 [7] = assay: Cell cycle arrest in mouse B16 cells by accumulation at G0/G1 phase at 1.0 uM after 48 hrs by flow cytometry; assay type: functional
B16 [8] = assay: Cell cycle arrest in mouse B16 cells by accumulation at G0/G1 phase at 0.5 uM after 48 hrs by flow cytometry; assay type: functional
B16 [9] = assay: Cell cycle arrest in mouse B16 cells by accumulation at G2/M phase at 2.0 uM after 48 hrs by flow cytometry; assay type: functional
B16 [10] = assay: Induction of apoptosis in mouse B16 cells assessed as reduction in Bcl2 level after 48 hrs by Western blot relative to control; assay type: functional, cell-based
[11] = Cytotoxicity against human QSG7701 cells after 48 hrs by MTT assay; assay type: cell-based; conditions: QSG7701, 48 h
B16 [12] = assay: Induction of apoptosis in mouse B16 cells assessed as increase in Bax level after 48 hrs by Western blot relative to control; assay type: functional, cell-based
B16 [13] = assay: Cell cycle arrest in mouse B16 cells by accumulation at S phase at 2.0 uM after 48 hrs by flow cytometry; assay type: functional
B16 [14] = assay: Induction of apoptosis in mouse B16 cells assessed as increase in caspase-3 cleavage after 48 hrs by Western blot relative to control; assay type: functional, cell-based
Calf thymus DNA = assay: Binding affinity to calf thymus DNA at 80 uM by spectrophotometry; assay type: nucleic-acid assay; conditions: Bos taurus
B16 [15] = assay: Cell cycle arrest in mouse B16 cells by accumulation at G2/M phase at 0.5 uM after 48 hrs by flow cytometry; assay type: functional
Bel-7402 = assay: Cytotoxicity against human Bel7402 cells after 48 hrs by MTT assay; assay type: functional, cell-based; conditions: Bel-7402, 48 h
B16 [16] = assay: Induction of apoptosis in mouse B16 cells assessed as sub-G1 DNA content at 1.0 uM after 48 hrs by flow cytometry; assay type: functional
B16 [17] = assay: Induction of apoptosis in mouse B16 cells assessed as sub-G1 DNA content at 2.0 uM after 48 hrs by flow cytometry; assay type: functional
B16 [18] = assay: Cell cycle arrest in mouse B16 cells by accumulation at G2/M phase at 1.0 uM after 48 hrs by flow cytometry; assay type: functional
B16 [19] = assay: Induction of apoptosis in mouse B16 cells assessed as increase in caspase-9 cleavage after 48 hrs by Western blot relative to control; assay type: functional, cell-based
B16 [20] = assay: Induction of apoptosis in mouse B16 cells assessed as increase in caspase-8 cleavage after 48 hrs by Western blot relative to control; assay type: functional, cell-based
B16 [21] = assay: Cell cycle arrest in mouse B16 cells by accumulation at S phase at 0.5 uM after 48 hrs by flow cytometry; assay type: functional

Structure (SMILES): NCCCNCCCCNCCCCN1C(=O)c2cccc3cccc(c23)C1=O
IC50 (B16 [1]): 2.7 µM
IC50 (K562): 3.84 µM
IC50 (CHO): 3.43 µM

Structure (SMILES): NCCCCNCCCCNCCCN1C(=O)c2cccc3cccc(c23)C1=O
IC50 (B16 [1]): 5.36 µM
IC50 (K562): 9.08 µM
IC50 (CHO): 9.09 µM

Structure (SMILES): NCCCCNCCCCNCc1c2ccccc2cc2ccccc12
IC50 (B16 [1]): 1.4 µM
IC50 (K562): 0.95 µM
IC50 (CHO): 1.25 µM
IC50 [2]: 8.3 µM

Structure (SMILES): O=C1NC(=O)c2cccc3cccc1c23
IC50 (B16 [1]): > 50 µM
IC50 (K562): > 50 µM
IC50 (CHO): > 50 µM

Activity (Calf thymus DNA): Active
Structure (SMILES): Cl.NCCCCNCCCCNCCCCN1C(=O)c2cccc3cccc(c23)C1=O
Activity (B16 [3]): 58.47%
Activity (B16 [4]): 9.71%
Activity (B16 [5]): 9.68%
IC50 (B16 [1]): 0.69 µM
Activity (B16 [6]): Active
Activity (B16 [7]): 65.38%
Activity (B16 [8]): 69.78%
Activity (B16 [9]): 34.19%
Activity (B16 [10]): Active
IC50 [11]: > 50 µM
Activity (B16 [12]): Active
Activity (B16 [13]): 7.34%
Activity (B16 [14]): Dose-dependent effect
IC50 (K562): 1.16 µM
IC50 (CHO): 2.58 µM
Activity (B16 [15]): 18.52%
IC50 (Bel-7402): 3.56 µM
Activity (B16 [16]): 16.84%
Activity (B16 [17]): 38.63%
Activity (B16 [18]): 24.91%
Activity (B16 [19]): Dose-dependent effect
Activity (B16 [20]): Dose-dependent effect
Activity (B16 [21]): 11.7%

Structure (SMILES): NCCCNCCCCN1C(=O)c2cccc3cccc(c23)C1=O
IC50 (B16 [1]): 13.9 µM
IC50 (K562): 11.4 µM
IC50 (CHO): 20.7 µM

Structure (SMILES): NCCCNCCCCNCCCN1C(=O)c2cccc3cccc(c23)C1=O
IC50 (B16 [1]): 0.62 µM
IC50 [11]: > 50 µM
IC50 (K562): 1.64 µM
IC50 (CHO): 1.21 µM
IC50 (Bel-7402): 1.06 µM
